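Protocol summary: plate cells (96-well), add compound at 5 concentrations, incubate 48 h, interpolate endpoints linearly. GI50 is the concentration that inhibits growth by half. TGI: total growth inhibition.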
Key:
Experiment in all cases: growth of human tumour cells (NCI), 48 h
SW-620 colon = system: SW-620 colon
OVCAR-3 ovarian = system: OVCAR-3 ovarian
SK-OV-3 ovarian = system: SK-OV-3 ovarian
HL-60(TB) leukemia = system: HL-60(TB) leukemia
SK-MEL-2 melanoma = system: SK-MEL-2 melanoma
PC-3 prostate = system: PC-3 prostate
UO-31 renal = system: UO-31 renal
K-562 leukemia = system: K-562 leukemia
UACC-257 melanoma = system: UACC-257 melanoma
MDA-MB-435 = system: MDA-MB-435
NCI-H522 lung = system: NCI-H522 lung
KM12 colon = system: KM12 colon
OVCAR-5 ovarian = system: OVCAR-5 ovarian
SF-295 CNS = system: SF-295 CNS
A498 renal = system: A498 renal
MALME-3M melanoma = system: MALME-3M melanoma
HCC-2998 colon = system: HCC-2998 colon
LOX IMVI melanoma = system: LOX IMVI melanoma
HCT-15 colon = system: HCT-15 colon
SR leukemia = system: SR leukemia
SN12C renal = system: SN12C renal
HOP-92 NSCLC = system: HOP-92 NSCLC
TK-10 renal = system: TK-10 renal
T-47D breast = system: T-47D breast
UACC-62 melanoma = system: UACC-62 melanoma
BT-549 breast = system: BT-549 breast
U251 CNS = system: U251 CNS
EKVX NSCLC = system: EKVX NSCLC
IGROV1 ovarian = system: IGROV1 ovarian
SNB-19 CNS = system: SNB-19 CNS
NCI-H23 lung = system: NCI-H23 lung
DU-145 prostate = system: DU-145 prostate
COLO 205 colon = system: COLO 205 colon
A549 NSCLC = system: A549 NSCLC
OVCAR-8 ovarian = system: OVCAR-8 ovarian
CCRF-CEM leukemia = system: CCRF-CEM leukemia
SF-268 CNS = system: SF-268 CNS
RPMI-8226 leukemia = system: RPMI-8226 leukemia
SK-MEL-28 melanoma = system: SK-MEL-28 melanoma
HCT-116 colon = system: HCT-116 colon
HOP-62 NSCLC = system: HOP-62 NSCLC
HT29 colon = system: HT29 colon
MDA-MB-231 breast = system: MDA-MB-231 breast
SNB-75 CNS = system: SNB-75 CNS
NCI-H226 lung = system: NCI-H226 lung
CAKI-1 renal = system: CAKI-1 renal
RXF 393 renal = system: RXF 393 renal
OVCAR-4 ovarian = system: OVCAR-4 ovarian
HS 578T breast = system: HS 578T breast
NCI/ADR-RES ovarian = system: NCI/ADR-RES ovarian
ACHN renal = system: ACHN renal
MCF7 breast = system: MCF7 breast
NCI-H460 lung = system: NCI-H460 lung
786-0 renal = system: 786-0 renal
M14 melanoma = system: M14 melanoma
MOLT-4 leukemia = system: MOLT-4 leukemia

SMILES: COc1ccc(CNS(=O)(=O)/N=C2\NC(=O)NC2=C(Cl)Cl)cc1
- GI50 (SW-620 colon): 2.45 µM
- TGI (SW-620 colon): 16.6 µM
- GI50 (OVCAR-3 ovarian): 1.59 µM
- TGI (OVCAR-3 ovarian): 17.5 µM
- GI50 (SK-OV-3 ovarian): 8.22 µM
- TGI (SK-OV-3 ovarian): > 100 µM
- GI50 (HL-60(TB) leukemia): 0.756 µM
- TGI (HL-60(TB) leukemia): 5.64 µM
- GI50 (SK-MEL-2 melanoma): 6.27 µM
- TGI (SK-MEL-2 melanoma): 42.8 µM
- GI50 (PC-3 prostate): 2.61 µM
- TGI (PC-3 prostate): > 100 µM
- GI50 (UO-31 renal): 5.13 µM
- TGI (UO-31 renal): > 100 µM
- GI50 (K-562 leukemia): 1.64 µM
- TGI (K-562 leukemia): > 100 µM
- GI50 (UACC-257 melanoma): 10.7 µM
- TGI (UACC-257 melanoma): 68.6 µM
- GI50 (MDA-MB-435): 1.36 µM
- TGI (MDA-MB-435): 4.33 µM
- GI50 (NCI-H522 lung): 2.07 µM
- TGI (NCI-H522 lung): 14.2 µM
- GI50 (KM12 colon): 0.327 µM
- TGI (KM12 colon): > 100 µM
- GI50 (OVCAR-5 ovarian): 3.23 µM
- TGI (OVCAR-5 ovarian): > 100 µM
- GI50 (SF-295 CNS): 2.85 µM
- TGI (SF-295 CNS): > 100 µM
- GI50 (A498 renal): 1.22 µM
- TGI (A498 renal): 5.39 µM
- GI50 (MALME-3M melanoma): 5.62 µM
- TGI (MALME-3M melanoma): 22.7 µM
- GI50 (HCC-2998 colon): 3.2 µM
- TGI (HCC-2998 colon): 10.4 µM
- GI50 (LOX IMVI melanoma): 0.386 µM
- TGI (LOX IMVI melanoma): 10.8 µM
- GI50 (HCT-15 colon): 3.19 µM
- TGI (HCT-15 colon): 11.6 µM
- GI50 (SR leukemia): 2.86 µM
- TGI (SR leukemia): 22.8 µM
- GI50 (SN12C renal): 0.811 µM
- TGI (SN12C renal): > 100 µM
- GI50 (HOP-92 NSCLC): 0.48 µM
- TGI (HOP-92 NSCLC): 10.4 µM
- GI50 (TK-10 renal): 6.55 µM
- TGI (TK-10 renal): > 100 µM
- GI50 (T-47D breast): 2.4 µM
- TGI (T-47D breast): > 100 µM
- GI50 (UACC-62 melanoma): 2.89 µM
- TGI (UACC-62 melanoma): 18.2 µM
- GI50 (BT-549 breast): 0.981 µM
- TGI (BT-549 breast): 12.2 µM
- GI50 (U251 CNS): 1.7 µM
- TGI (U251 CNS): 14.6 µM
- GI50 (EKVX NSCLC): 4.39 µM
- TGI (EKVX NSCLC): > 100 µM
- GI50 (IGROV1 ovarian): 3.3 µM
- TGI (IGROV1 ovarian): 22 µM
- GI50 (SNB-19 CNS): 1.14 µM
- TGI (SNB-19 CNS): > 100 µM
- GI50 (NCI-H23 lung): 3.8 µM
- TGI (NCI-H23 lung): 17.7 µM
- GI50 (DU-145 prostate): 3.22 µM
- TGI (DU-145 prostate): > 100 µM
- GI50 (COLO 205 colon): 2.21 µM
- TGI (COLO 205 colon): 5.1 µM
- GI50 (A549 NSCLC): 3.48 µM
- TGI (A549 NSCLC): > 100 µM
- GI50 (OVCAR-8 ovarian): 3.38 µM
- TGI (OVCAR-8 ovarian): > 100 µM
- GI50 (CCRF-CEM leukemia): 0.364 µM
- TGI (CCRF-CEM leukemia): 16.2 µM
- GI50 (SF-268 CNS): 0.541 µM
- TGI (SF-268 CNS): > 100 µM
- GI50 (RPMI-8226 leukemia): 0.352 µM
- TGI (RPMI-8226 leukemia): 5.21 µM
- GI50 (SK-MEL-28 melanoma): 8.08 µM
- TGI (SK-MEL-28 melanoma): 22 µM
- GI50 (HCT-116 colon): 0.531 µM
- TGI (HCT-116 colon): > 100 µM
- GI50 (HOP-62 NSCLC): 0.621 µM
- TGI (HOP-62 NSCLC): > 100 µM
- GI50 (HT29 colon): 1.67 µM
- TGI (HT29 colon): > 100 µM
- GI50 (MDA-MB-231 breast): 1.92 µM
- TGI (MDA-MB-231 breast): 8.31 µM
- GI50 (SNB-75 CNS): 1.34 µM
- TGI (SNB-75 CNS): > 100 µM
- GI50 (NCI-H226 lung): 2.03 µM
- TGI (NCI-H226 lung): 5.51 µM
- GI50 (CAKI-1 renal): 3.05 µM
- TGI (CAKI-1 renal): 73.3 µM
- GI50 (RXF 393 renal): 1.71 µM
- TGI (RXF 393 renal): 6.79 µM
- GI50 (OVCAR-4 ovarian): 4.47 µM
- TGI (OVCAR-4 ovarian): > 100 µM
- GI50 (HS 578T breast): 2.09 µM
- TGI (HS 578T breast): > 100 µM
- GI50 (NCI/ADR-RES ovarian): 2.93 µM
- TGI (NCI/ADR-RES ovarian): > 100 µM
- GI50 (ACHN renal): 3.59 µM
- TGI (ACHN renal): > 100 µM
- GI50 (MCF7 breast): 0.348 µM
- TGI (MCF7 breast): > 100 µM
- GI50 (NCI-H460 lung): 2.82 µM
- TGI (NCI-H460 lung): > 100 µM
- GI50 (786-0 renal): 1.88 µM
- TGI (786-0 renal): > 100 µM
- GI50 (M14 melanoma): 3.02 µM
- TGI (M14 melanoma): > 100 µM
- GI50 (MOLT-4 leukemia): 0.435 µM
- TGI (MOLT-4 leukemia): 59.2 µM

Reference: PubChem BioAssay (NCI)
